# Source: publication PMC11171218, “N-Benzylated 5-Hydroxybenzothiophene-2-carboxamides as Multi-Targeted Clk/Dyrk Inhibitors and Potential Anticancer Agents” (Cancers, 2024)
# Columns and labels:
# Hela cells = experiment: CCK-8 cell viability, Hela; format: cell-based; conditions: Homo sapiens, 72 h; for inhibition at 20 µM: CCK-8, mean ± S.E.M. (n = 3), read-out: Hela % Inh. at μM; for IC50: CCK-8, 50% inhibition of viability
# Protocol: (§1) All cells were purchased from Bioresource Collection and Research Center (Hsinchu, Taiwan) and cultured in corresponding media supplemented with 10% fetal bovine serum, 1 × Antibiotic-Antimycotic at 37 °C in a humidified incubator with 5% CO2. […] T24 cells were cultured in McCoy’s 5a media. IEC-6 cells were cultured in DMEM media supplemented with 5% fetal bovine serum, 1 × Antibiotic–Antimycotic, and 0.1 unit/mL insulin.
# (§2) Cells were incubated with the Cell Counting Kit-8 (CCK-8) reagent (TargetMol, Boston, MA, USA) at 37 °C for 2 h. The cell viability was determined by spectrophotometer at 450 nm.
# Dyrk1B = Dyrk1B (Homo sapiens, UniProt Q9Y463); experiment: Z'-LYTE kinase inhibition assay, Dyrk1B; format: biochemical; conditions: for IC50: ATP conc. equivalent to Km; for inhibition at 1 µM: read-out: Dyrk1B % Inh. At 1 µM
# Sequence of Dyrk1B (Q9Y463 whole entry): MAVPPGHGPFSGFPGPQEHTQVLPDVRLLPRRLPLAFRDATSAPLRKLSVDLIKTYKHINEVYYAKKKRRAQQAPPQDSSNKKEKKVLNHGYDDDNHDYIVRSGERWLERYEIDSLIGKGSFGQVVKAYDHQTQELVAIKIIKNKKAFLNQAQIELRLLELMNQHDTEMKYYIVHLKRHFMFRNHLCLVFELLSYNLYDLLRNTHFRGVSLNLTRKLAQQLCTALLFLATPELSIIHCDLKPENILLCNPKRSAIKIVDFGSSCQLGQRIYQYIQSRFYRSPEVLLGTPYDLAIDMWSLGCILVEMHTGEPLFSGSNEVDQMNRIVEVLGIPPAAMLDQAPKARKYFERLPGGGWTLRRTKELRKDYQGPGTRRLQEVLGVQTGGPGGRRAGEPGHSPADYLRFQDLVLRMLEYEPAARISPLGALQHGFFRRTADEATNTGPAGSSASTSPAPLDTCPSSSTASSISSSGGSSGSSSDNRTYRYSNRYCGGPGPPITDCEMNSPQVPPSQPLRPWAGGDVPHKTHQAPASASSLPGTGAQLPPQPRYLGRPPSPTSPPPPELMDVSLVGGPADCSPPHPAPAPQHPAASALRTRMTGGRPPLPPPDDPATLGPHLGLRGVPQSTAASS
# Text: (§3) 3. Experimental procedure for protein kinases and inhibition assays.
# (§4) 3.1 The Z ́ -LYTE biochemical assay for screening and IC 50 determination for Clk1, Dyrk1A, Dyrk1B, Clk2 and Clk3 kinases.
# (§5) The assay employs a fluorescence-based, coupled-enzyme format and is based on the differential sensitivity of phosphorylated and non-phosphorylated peptides to proteolytic cleavage. The peptide substrate is labeled with two fluorophores-one at each end-that make up a FRET pair. In the primary reaction, the kinase transfers the gamma-phosphate of ATP to a single tyrosine, serine, or threonine residue in a synthetic FRET-peptide. In the secondary reaction, a site-specific protease recognizes and cleaves non-phosphorylated FRET-peptides. Phosphorylation of FRET-peptides suppresses cleavage by the Development Reagent. Cleavage disrupts FRET between the donor (i.e., coumarin) and acceptor (i.e., fluorescein) fluorophores on the FRET-peptide, whereas uncleaved, phosphorylated FRET-peptides maintain FRET. A ratiometric method, which calculates the ratio (the Emission Ratio) of donor emission to acceptor emission after excitation of the donor fluorophore at 400 nm, is used to quantitate reaction progress. Both cleaved and uncleaved FRET-peptides contribute to the fluorescence signals and therefore to the Emission Ratio. The extent of phosphorylation of the FRET-peptide can be calculated from the Emission Ratio. The Emission Ratio will remain low if the FRET-peptide is phosphorylated (i.e., no kinase inhibition) and will be high if the FRET-peptide is non-phosphorylated (i.e., kinase inhibition).
# (§6) The IC 50 values were determined for compounds displaying significant % inhibition in the screening step. IC 50 determination was done through testing at a range of concentrations with two […]
# (§7) two independent experiments. […]
# 3.1.3 Dyrk1B kinase assay specific conditions:
# The 2X Dyrk1B / Ser/Thr 18 mixture is prepared in 50 mM HEPES pH 6.5, 0.01% BRIJ-35, 10 […]
# mM MgCl2, 1 mM EGTA, 0.02% NaN3.
# (§8) Development Reagent A is added. […]
# (§9) MgCl2, 1 mM EGTA, 0.02% NaN3. […]
# Dyrk1A = Dyrk1A (Homo sapiens, UniProt Q13627); experiment: Z'-LYTE kinase inhibition assay, Dyrk1A; format: biochemical; conditions: for IC50: ATP conc. equivalent to Km; for inhibition at 1 µM: read-out: Dyrk1A % Inh. At 1 µM
# Text: as §3, §4, §5, §6, §7
# 3.1.2 Dyrk1A kinase assay specific conditions:
# The 2x Dyrk1A / Ser/Thr 18 mixture is prepared in 50 mM HEPES pH 7.5, 0.01% BRIJ-35, 10 […]
# 2 µM Ser/Thr 18 in 50 mM HEPES pH 7.5, 0.01% BRIJ-35, 10 mM MgCl 2, 1 mM EGTA. […]
# as §8, §9
# HCT-116 cells = experiment: CCK-8 cell viability, HCT-116; format: cell-based; conditions: Homo sapiens, 72 h; for inhibition at 20 µM: HCT-116, read-out: HCT-[…] Inh. at 20 μM, CCK-8, mean ± S.E.M. (n = 3); for IC50: HCT-116, read-out: HCT-116 IC50 in µM, CCK-8, 50% inhibition of viability
# Protocol: as §1, §2
# U87 cells = experiment: CCK-8 cell viability, U87; format: cell-based; conditions: Homo sapiens, U-87 MG, 72 h; for inhibition at 20 µM: CCK-8, mean ± S.E.M. (n = 3), read-out: U87 % Inh. at μM
# Protocol: as §1, §2
# Clk3 = Clk3 (Homo sapiens, UniProt P49761); experiment: Z'-LYTE kinase inhibition assay, Clk3; format: biochemical; conditions: 1 µM compound; screening by Thermo Fisher Scientific
# Sequence of Clk3 (P49761 whole entry): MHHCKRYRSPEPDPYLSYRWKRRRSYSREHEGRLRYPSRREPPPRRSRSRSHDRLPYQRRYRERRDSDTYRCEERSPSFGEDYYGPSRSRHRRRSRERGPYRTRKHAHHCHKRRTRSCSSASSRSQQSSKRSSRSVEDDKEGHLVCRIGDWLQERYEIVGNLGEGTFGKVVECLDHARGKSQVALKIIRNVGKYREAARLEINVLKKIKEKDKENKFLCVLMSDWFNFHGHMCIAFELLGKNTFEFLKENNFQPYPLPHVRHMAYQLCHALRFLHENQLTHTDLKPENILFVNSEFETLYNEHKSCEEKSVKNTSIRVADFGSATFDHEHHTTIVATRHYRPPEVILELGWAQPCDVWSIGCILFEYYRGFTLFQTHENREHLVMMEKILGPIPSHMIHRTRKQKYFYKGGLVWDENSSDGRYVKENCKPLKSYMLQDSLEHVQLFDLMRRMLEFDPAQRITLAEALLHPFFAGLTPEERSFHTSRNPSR
# Text: as §3, §4, §5, §6, §7, §8
# 3.1.5 Clk3 kinase assay specific conditions:
# The 2X Clk3 / Ser/Thr 18 mixture is prepared in 50 mM Tris pH 8.5, 0.01% BRIJ-35, 10 mM […]
# as §9
# of Development Reagent A is added.
# MCF-7 cells = experiment: CCK-8 cell viability, MCF-7; format: cell-based; conditions: Homo sapiens, MCF7, 72 h, CCK-8, mean ± S.E.M. (n = 3), read-out: MCF-7 % Inh. at μM
# Protocol: as §1, §2
IC50 (Dyrk1B) [nM],inhibition at 1 µM (Dyrk1B) [%],IC50 (Dyrk1A) [nM],inhibition at 1 µM (Dyrk1A) [%],inhibition at 1 µM (Clk3) [%],melting point [°C],IC50 (Hela cells) [nM],IC50 (HCT-116 cells) [µM],"IC50 (U87 cells; CCK-8, 50% inhibition of viability) [nM]",Improvement in inhibitory activity against Dyrk1B compared to compound 1 (Dyrk1B; ratio of IC50 vs compound 1) [fold],SMILES,inhibition at 20 µM (Hela cells) [%],inhibition at 20 µM (HCT-116 cells) [%],inhibition at 20 µM (U87 cells) [%],inhibition at 20 µM (MCF-7 cells) [%]
530,66,751,60,22,211.2 to 212.3,,,,,"O=C(NCc1cccc(Cl)c1)c1cc2cc(O)ccc2s1 [Compound 3, N-(3-Chlorobenzyl)-5-hydroxybenzo[b]thiophene-2-carboxamide]",50.5 ± 3.93,25.9 ± 2.54,32.2 ± 4.76,15.6 ± 3.85
406,71,666,60,27,176.7 to 177.7,,,,,"O=C(NCc1cccc(F)c1)c1cc2cc(O)ccc2s1 [Compound 6, N-(3-Fluorobenzyl)-5-hydroxybenzo[b]thiophene-2-carboxamide]",53.3 ± 2.22,60.1 ± 3.11,21 ± 5.07,16.2 ± 2.2
578,64,565,64,24,128.5 to 130.7,19300,,,,"COc1ccccc1CNC(=O)c1cc2cc(O)ccc2s1 [Compound 11, 5-Hydroxy-N-(2-methoxybenzyl)benzo[b]thiophene-2-carboxamide]",62.1 ± 1.97,0,18.1 ± 0.81,56.4 ± 4.47
238,81,536,65,26,,,6.4,16500,,"COc1cccc(CNC(=O)c2cc3cc(O)ccc3s2)c1 [Compound 12, 5-Hydroxy-N-(3-methoxybenzyl)benzo[b]thiophene-2-carboxamide]",50.7 ± 2.41,75.7 ± 0.31,60.1 ± 6.16,93.5 ± 0.17
242,81,495,67,26,,18100,8.1,,4,"O=C(NCc1cc(F)cc(F)c1)c1cc2cc(O)ccc2s1 [Compound 17, N-(3,5-Difluorobenzyl)-5-hydroxybenzo[b]thiophene-2-carboxamide]",60.9 ± 2.82,67.6 ± 0.58,47.3 ± 5.65,20.9 ± 2.02
